In patent publication US20020019536A1, “NEW URETHANES, THIO AND DITHIO ANALOGUES AND THEIR USE AS INHIBITORS OF CHOLESTEROL BIOSYNTHESIS” (priority 1997, published 2002):
In brackets after ≈: the same amount, converted by molar mass.

Experiments:
[1] = test system: 14C-acetate incorporation into the steroids which can be precipitated with digitonin (cholesterol biosynthesis); assay: Inhibition of 14C-acetate incorporation into the steroids which can be precipitated with digitonin; type: cell-based
Text: I. Measuring the Inhibition of ^14C-acetate incorporation into the steroids which can be precipitated with digitonin: The inhibitory effect was investigated using the method described in J. Lipid. Res. 37, 148-157 [1996] at test concentrations of 10^−8 and 10^−9 mol/l.

[2] = biological target: T1, 2,3-epoxysqualene-lanosterol-cyclase (Rattus norvegicus, UniProt P48450); assay: In-vivo activity in the rat after oral administration: 2,3-epoxysqualene level in the liver
T1 construct: Measuring the in-vivo Activity in the Rat after Oral Administration; from tissue; host or cells: living rat; 2,3-epoxysqualene measured in the liver
T1 sequence (P48450 1-733): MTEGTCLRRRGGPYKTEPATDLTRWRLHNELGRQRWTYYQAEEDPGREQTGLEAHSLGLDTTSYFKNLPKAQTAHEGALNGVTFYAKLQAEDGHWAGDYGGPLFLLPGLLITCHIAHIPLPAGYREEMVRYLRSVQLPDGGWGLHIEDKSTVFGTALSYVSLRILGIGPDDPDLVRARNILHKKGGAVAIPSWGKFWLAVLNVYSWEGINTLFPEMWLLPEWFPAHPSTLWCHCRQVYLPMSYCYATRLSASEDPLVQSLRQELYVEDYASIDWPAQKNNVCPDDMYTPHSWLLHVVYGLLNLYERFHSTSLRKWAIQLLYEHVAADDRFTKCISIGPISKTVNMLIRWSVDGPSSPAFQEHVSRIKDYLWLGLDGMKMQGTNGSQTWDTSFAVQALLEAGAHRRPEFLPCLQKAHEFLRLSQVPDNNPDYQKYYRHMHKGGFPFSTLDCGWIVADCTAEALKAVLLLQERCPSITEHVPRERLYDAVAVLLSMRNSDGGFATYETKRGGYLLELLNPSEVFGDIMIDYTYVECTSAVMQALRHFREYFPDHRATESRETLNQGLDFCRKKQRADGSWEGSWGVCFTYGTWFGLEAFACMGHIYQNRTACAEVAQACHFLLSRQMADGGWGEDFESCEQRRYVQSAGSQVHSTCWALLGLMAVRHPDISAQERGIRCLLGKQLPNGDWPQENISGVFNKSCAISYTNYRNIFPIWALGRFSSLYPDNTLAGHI
Experimental: II. Measuring the in-vivo Activity in the Rat after Oral Administration
Inhibiting the enzyme 2,3-epoxysqualene-lanosterol-cyclase causes an increase in the 2,3-epoxisqualene levels in the liver and plasma. The quantity of 2,3-epoxysqualene formed therefore serves as a direct measurement of the potency on the animal as a whole. The amounts were determined using the method described in J. Lipid. Res. 38, 564-575, [1997] at t=3 or 8 hours after administration of the substance in concentrations of c=0.01, 0.03, 0.1, 0.3 and 1.0 mg/kg. Table 3 which follows gives the results obtained for the abovementioned substances A, B, C, E, G, H, O and R by way of example.
In the control animals there were no measurable 2,3-epoxisqualene levels under these conditions.

Asp. niger ATCC 16404 = assay: Fungistatic activity, series dilution test; type: cell-based; settings: Sabouraud broth, 2 to 4 days at 26° C.
Experimental: (§1) V. Determining the Fungistatic Activity
(§2) The fungistatic activity was determined by the series dilution test (microtitre system). Sabouraud broth was used as the nutrient medium. The inoculum amounted to about 10^4 to 10^5 CFU/ml (CFU=colony-forming units); the incubation period was 2 to 4 days at 26° C.
(§3) The lowest concentration which allows no visible growth (minimum inhibitory concentration MIC) was determined.
(§4) The abovementioned compounds B, E, G, I, K, L, N, Q and R were tested. The MIC is given in μg/ml.

[3] = test system: Cand. albicans ATCC 10231; assay: Fungistatic activity, series dilution test; type: cell-based; settings: Sabouraud broth, 2 to 4 days at 26° C.
Experimental: as §1, §2, §3, §4

Pen. notatum CBS 19746 = assay: Fungistatic activity, series dilution test; type: cell-based; settings: Sabouraud broth, 2 to 4 days at 26° C.
Experimental: as §1, §2, §3, §4

Rhod. rubra 49 = assay: Fungistatic activity, series dilution test; type: cell-based; settings: Sabouraud broth, 2 to 4 days at 26° C.
Experimental: as §1, §2, §3, §4

[4] = test system: Sacch. carisbergensis ATCC 9080; assay: Fungistatic activity, series dilution test; type: cell-based; settings: Sabouraud broth, 2 to 4 days at 26° C.
Experimental: as §1, §2, §3, §4

[5] = test system: Trich. mentagrophytes ATCC 9129; assay: Fungistatic activity, series dilution test; type: cell-based; settings: Sabouraud broth, 2 to 4 days at 26° C.
Experimental: as §1, §2, §3, §4

[6] = Lipid reduction in the normolipaemic golden hamster; type: in vivo; settings: compared with control group
Experimental: III. Lipid Reduction in the Normolipaemic Golden Hamster This was determined using the method described in J. Lipid. Res. 38, 564-575, (1997). At the end of the experiment the total cholesterol, β-lipoprotein-cholesterol and HDL-cholesterol were determined and compared with the values of a control group which were fed without any test substance. The lipid-lowering activity of the abovementioned compounds E, G and I was tested.

[7] = 0.03 mg/kg oral, 3 h after administration
[8] = 0.03 mg/kg oral, 8 h after administration
[9] = 0.1 mg/kg oral, 3 h after administration
[10] = 0.1 mg/kg oral, 8 h after administration
[11] = 0.3 mg/kg oral, 3 h after administration
[12] = 0.3 mg/kg oral, 8 h after administration

Structure (SMILES) | percentage inhibition of 14C-acetate incorporation ([1]; test concentration 10^−8 mol/l) | percentage inhibition of 14C-acetate incorporation ([1]; test concentration 10^−9 mol/l) | 2,3-epoxysqualene concentration in the liver (rat) [2, 7] | 2,3-epoxysqualene concentration in the liver (rat) [2, 8] | 2,3-epoxysqualene concentration in the liver (rat) [2, 9] | 2,3-epoxysqualene concentration in the liver (rat) [2, 10] | 2,3-epoxysqualene concentration in the liver (rat) [2, 11] | 2,3-epoxysqualene concentration in the liver (rat) [2, 12] | MIC Asp. (Asp. niger ATCC 16404) | MIC Cand. [3] | MIC Pen. (Pen. notatum CBS 19746) | MIC Rhod. (Rhod. rubra 49) | MIC Sacc. [4] | MIC Trich. [5] | also measured
CN(C)Cc1ccc([C@H]2CC[C@H](N(C)C(=S)SCc3cccc(F)c3)CC2)cc1.Cl [B, trans-S-(3-fluorobenzyl)-N-4-[4-(dimethylaminomethyl)-phenyl]cyclohexyl-N-methyldithiocarbamate-hydrochloride] | −85% | −59% | 24.5 µg/g | 57.1 µg/g | 96.0 µg/g | 150.9 µg/g | 98.5 µg/g | 234.5 µg/g | 2 µg/mL | 2 µg/mL | 2 µg/mL | 2 µg/mL | 8 µg/mL | 1 µg/mL | 
CN(C(=O)Oc1ccc(Cl)cc1)[C@H]1CC[C@H](c2ccc(CN3CCCCC3)cc2)CC1.Cl [I, trans-O-(4-chlorophenyl)-N-methyl-N-4-[4-(piperidinomethyl)phenyl]cyclohexylcarbamate-hydrochloride] | −83% | −43% |  |  |  |  |  |  | 256 µg/mL | 64 µg/mL | 64 µg/mL | 64 µg/mL | 64 µg/mL | 8 µg/mL | HDL-cholesterol ([6]; dose 0.46 mg/kg/day): −3.3%; Total cholesterol ([6]; dose 0.46 mg/kg/day): −16.1%; β-Lipoprotein-cholesterol ([6]; dose 0.46 mg/kg/day): −26.2%; HDL-cholesterol ([6]; dose 1.34 mg/kg/day): −5.0%; Total cholesterol ([6]; dose 1.34 mg/kg/day): −20.2%; β-Lipoprotein-cholesterol ([6]; dose 1.34 mg/kg/day): −33.7%; HDL-cholesterol ([6]; dose 4.89 mg/kg/day): −16.2%; Total cholesterol ([6]; dose 4.89 mg/kg/day): −25.7%; β-Lipoprotein-cholesterol ([6]; dose 4.89 mg/kg/day): −36.1%
Cc1ccc(OC(=S)N(C)[C@H]2CC[C@H](c3ccc(CN4CCCCC4)cc3)CC2)cc1.Cl [Q, trans-N-Methyl-O-(4-methylphenyl)-N-4-[4-(piperidinomethyl)phenyl]cyclohexylthiocarbamate-hydrochloride] | −79% | −51% |  |  |  |  |  |  | 128 µg/mL | 16 µg/mL | 64 µg/mL | 8 µg/mL | 32 µg/mL | 2 µg/mL | 
C#CCN(C)Cc1ccc([C@H]2CC[C@H](N(C)C(=O)Oc3ccc(Cl)cc3)CC2)cc1 [N, trans-O-(4-chlorophenyl)-N-methyl-N-4-[4-(N-methyl-N-propargylaminomethyl)phenyl]cyclohexylcarbamate] | −90% | −75% |  |  |  |  |  |  | >512 µg/mL | 8 µg/mL (≈ 18.8 µM) | 8 µg/mL (≈ 18.8 µM) | 16 µg/mL (≈ 37.6 µM) | 64 µg/mL (≈ 151 µM) | 8 µg/mL (≈ 18.8 µM) | 
CN(C)Cc1ccc([C@H]2CC[C@H](N(C)C(=O)Oc3ccc(F)cc3)CC2)cc1.Cl [R, trans-N-4-[4-(dimethylaminomethyl)phenyl]cyclohexyl-O-(4-fluorophenyl)-N-methylcarbamate-hydrochloride] | −86% | −63% | 38.2 µg/g | 67.2 µg/g | 53.8 µg/g | 152.9 µg/g | 79.7 µg/g | 191.0 µg/g | 16 µg/mL | 64 µg/mL | 16 µg/mL | 16 µg/mL | 512 µg/mL | 2 µg/mL | IC50 ([1]; 14C-acetate incorporation): 0.5 nM; 2,3-epoxysqualene concentration in the liver (rat) ([2]; 0.01 mg/kg oral, 3 h after administration): 5.1 µg/g; 2,3-epoxysqualene concentration in the liver (rat) ([2]; 0.01 mg/kg oral, 8 h after administration): 25.6 µg/g; 2,3-epoxysqualene concentration in the liver (rat) ([2]; 1.0 mg/kg oral, 3 h after administration): 106.2 µg/g; 2,3-epoxysqualene concentration in the liver (rat) ([2]; 1.0 mg/kg oral, 8 h after administration): 340.0 µg/g; HDL-cholesterol ([6]; dose 1.73 mg/kg/day): −19.7%; Total cholesterol ([6]; dose 1.73 mg/kg/day): −16.5%; β-Lipoprotein-cholesterol ([6]; dose 1.73 mg/kg/day): −14.3%; HDL-cholesterol ([6]; dose 6.37 mg/kg/day): −20.0%; Total cholesterol ([6]; dose 6.37 mg/kg/day): −27.8%; β-Lipoprotein-cholesterol ([6]; dose 6.37 mg/kg/day): −34.3%
CN(C(=O)Oc1ccc(Cl)cc1)[C@H]1CC[C@H](c2ccc(CN3CCCC3)cc2)CC1.Cl [K, trans-O-(4-chlorophenyl)-N-methyl-N-4-[4-(pyrrolidinomethyl)phenyl]cyclohexylcarbamate-hydrochloride] | −81% | −53% |  |  |  |  |  |  | 16 µg/mL | 64 µg/mL | 8 µg/mL | 32 µg/mL | 128 µg/mL | 2 µg/mL | 
